US20220030850A1, “CRYOPRESERVATIVE COMPOSITIONS AND METHODS” (REGENTS OF THE UNIVERSITY OF MINNESOTA, priority 2015, published 2022)

What was measured:
[1] = tested on: Jurkat cells; assay: 96-well plate freezing, post-thaw scaled raw recovery (calcein-AM/PI); assay type: cell-based
Protocol: The first phase of this study involved using the DE algorithm to develop a three-component cryopreservation solution used at a single cooling rate (1° C./min). Three components (trehalose, glycerol, and ectoine (TGE)) were selected as components of the exemplary freezing medium used for preservation of Jurkat cells, a hematopoietic model cell type, based on pre-screening of multiple non-DMSO components. For this single cooling rate study, the DE algorithm was programmed to output 18 vector solutions per generation with a weight=0.85 and a crossover=1. Jurkat cells cryopreserved in 10% DMSO at a cooling rate of 1° C./min were used as a control.
Cooling rate influences cell survival, and the preferred cooling rate for a given application can depend, at least in part, on the composition of the freezing medium and the cell type being frozen. […] To assess both cooling rate and the composition of the solution, the DE algorithm was programmed to output 27 vector solutions per generation with weight=0.85 and a crossover=1. Solutions were separated into categories based on their DE algorithm defined cooling rate, and were frozen in batches at a cooling rate of […], 0.5° C./min, 1° C./min, 3° C./min, 5° C./min, or 10° C./min. Results were normalized and scaled raw recovery is reported, allowing results from all cooling rates and all generations to be compared directly. […]
After 96 well plates were thawed, calcein-acetoxymethyl (AM)/propidium iodide was added to each well and the wells were covered from light and placed in a 37° C. incubator for 30 minutes to allow the live cells to cleave calcein-AM. The plates were then analyzed for fluorescence on a plate reader. Raw fluorescence values were used to calculate the number of live and dead cells present in each well by correlating to a control curve of unfrozen cells. The live cell recovery was calculated by dividing the number of live cells present in thawed samples (calcein-AM plate reader fluorescence) by the number of live cells seeded pre-freeze (AO/PI counts). […]

[2] = tested on: Jurkat cells; assay: High throughput factorial screening with Linear Mixed Effects statistical analysis of recovery; assay type: cell-based; conditions: statistical analysis of sugar and cooling rate
Protocol: (§1) In another evaluation, cells were combined with factorial combinations of the components listed in Table 5, using one component from each category. Plates including cells and solutions were frozen at cooling rates of 1′C/min, 3′C/min, 5′C/min, or 10′C/min.
(§2) Recovery was calculated by dividing the number of live cells post thaw—calculated using a control curve correlating calcein-acetoxymethyl (AM) fluorescence to cell count—by the number of live cells seeded pre-freeze (AO/PI counts taken prior to freezing). Recovery was normalized by dividing by the DMSO recovery on each plate, then multiplying by a standard DMSO recovery for each cooling rate. This normalized recovery was used to compare samples between different plates and different cooling rates.
(§3) Statistical analysis of the data was performed using a Linear Effects Model. The model associated with best fit was determined using Bayesian Information Criteria. […] The ten best combinations for Jurkats are summarized in Table 6 below, while the eight best combinations for MSCs are summarized in Table 7.
High throughput factorial screening experiments were performed on a Biomek Beckman FX 96 liquid handling robot. Briefly, 12.5 μl of an array of additives were transferred to nine 96-well plates containing 12.5 μl of different sugar alcohols. Cells (25 μl) diluted in either a sugar (in a solution of NORMOSOL-R; Hospira, Inc., Lake Forest, L) or a NORMOSOL-R blank solution were transferred to these nine plates to give a final volume of 50 μl in each well. Cells suspended in […] in media were also included as a row of each plate to serve as normalization wells for plate-to-plate comparison.
When all plate volume transfers were complete, silicone plate covers were used to seal each plate, and plates were transferred to a controlled rate freezer (Kryo 10 Series III, Planer PLC, Middlesex, United Kingdom) and frozen at cooling rates ranging from 1° C./min to 10° C./min. The concentrations of components present in solution are listed in Table 11, and were selected based on values described in literature or solubility limits. Component concentrations were 0 if not listed in a solution.
Plate samples were also assessed for viability using fluorescence. Briefly, a solution of calcein-AM/propidium iodide was prepared and a volume of 50 μl was added to each sample well of experimental 96-well plates, producing a 1:1 dilution. Plates were protected from light and placed in an incubator for 30 minutes to allow for calcein-AM digestion. A fluorescent plate reader (Synergy HT, BioTek Instruments, Inc., Winooski, Vt.) was used to determine the fluorescence in each well, which was correlated to live and dead cell counts using a control curve.
Viability was calculated for all samples by dividing the number of live cells by the number of total cells. Recovery was calculated directly by dividing the number of live cells post thaw by the number of live cells pre-freeze. Recovery for 96-well plate samples was further normalized; each experimental sample recovery was divided by the DMSO recovery on the same plate, and then multiplied by the standard DMSO recovery for the cooling rate of each experiment.
To assess the importance of the four explanatory variables of interest (Sugar, Rate, Additive and Alcohol), without neglecting the variation between each batch and between each plate within the batches, we sought to find the best Linear Mixed Effects (LME) model. […]

[3] = tested on: MSCs; assay: as above; assay type: cell-based, human; conditions: statistical analysis of sugar and cooling rate
Protocol: as §1, §2, §3
To assess the importance of the four explanatory variables of interest (Sugar, Rate, Additive and Alcohol), without neglecting the variation between each batch and between each plate within the batches, we sought to find the best Linear Mixed Effects (LME) model. With yi the i'th outcome of the response, Xi the corresponding values of the covariates, the LME model is defined as
To select the most fitting model, we performed backward elimination based on the Bayesian Information Criterion (BIC) starting with a model that includes all variables and second order interactions. Furthermore, we included two random variables, one to catch the effect of the batch, and one to catch the effect of each plate within the batch—i.e., the full model is: […]

| SMILES | recovery of Jurkat cells ([1]; 10% DMSO at 1° C./min, control, 96-well) [%] | recovery of Jurkat cells, sugar synergy study ([1]; 150, 300, 600 mM total sugar, FIG. 8) | cooling rate at which cells performed better with the sugar [2] | cooling rate at which cells performed better with the sugar [3] |
| --- | --- | --- | --- | --- |
| C[S+](C)[O-] [DMSO, dimethyl sulfoxide] | 16 | – | – | – |
| OC[C@H]1O[C@@](CO)(O[C@H]2O[C@H](CO)[C@@H](O)[C@H](O)[C@H]2O)[C@@H](O)[C@@H]1O [Sucrose] | – | outperformed monosaccharides | 10 °C and 1° C./min | 3 °C and 5° C./min |
